Measurements published in ChEMBL document CHEMBL1201862, “PubChem BioAssay data set” (2004).
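Dose response: 5 concentrations. Exposure: 48 h. Format: 96-well plates. Endpoint: linear interpolation; highest concentration if not reached. At the GI50, growth is halved.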 The source made the active and inactive calls. Cut-off read from the data, not from the text of the source: active = GI50 up to about 1.1 µM and inactive = higher.

How the values were obtained:
Assay in all cases: growth of human tumour cells (NCI), 48 h
[1] = test system: SF-268
[2] = test system: HT-29
[3] = test system: MDA-N
[4] = test system: T47D
[5] = test system: SNB-75
[6] = test system: SK-MEL-5
[7] = test system: CCRF-CEM
[8] = test system: MDA-MB-435
[9] = test system: Malme-3M
[10] = test system: NCI-H460
[11] = test system: SNB-19
[12] = test system: HOP-92
[13] = test system: SW-620
[14] = test system: NCI/ADR-RES
[15] = test system: HL-60
[16] = test system: MOLT-4
[17] = test system: 786-0
[18] = test system: SF-295
[19] = test system: ACHN
[20] = test system: RPMI-8226

Row | Compound | GI50 [1] | GI50 [2] | GI50 [3] | GI50 [4] | GI50 [5] | GI50 [6] | GI50 [7] | GI50 [8] | GI50 [9] | GI50 [10] | GI50 [11] | GI50 [12] | GI50 [13] | GI50 [14] | GI50 [15] | GI50 [16] | GI50 [17] | GI50 [18] | GI50 [19] | GI50 [20]
1 | COc1cc(/C=C2\N=C(c3ccccc3)N(c3nc4c(OC)ccc(OC)c4s3)C2=O)cc(OC)c1OC | > 100 µM (inactive) | > 100 µM (inactive) | 35.8 µM (inactive) | 32.4 µM (inactive) | > 100 µM (inactive) | 34.8 µM (inactive) | 31.2 µM (inactive) | 31.3 µM (inactive) | > 100 µM (inactive) | > 100 µM (inactive) | > 100 µM (inactive) | > 100 µM (inactive) | 49.7 µM (inactive) | > 100 µM (inactive) | 30.4 µM (inactive) | 35.2 µM (inactive) | 55 µM (inactive) | > 100 µM (inactive) | > 100 µM (inactive) | 43 µM (inactive)
2 | c1ccc(C[N+]23CN4CN(CN(C4)C2)C3)cc1 | 29.3 µM (inactive) | 33.2 µM (inactive) | 94.4 µM (inactive) | 28.4 µM (inactive) | 45.6 µM (inactive) | 23.9 µM (inactive) | 11.7 µM (inactive) | 22 µM (inactive) | 57.7 µM (inactive) | 38.2 µM (inactive) | 26.4 µM (inactive) | 36.1 µM (inactive) | 24.1 µM (inactive) | 78.5 µM (inactive) | 24.1 µM (inactive) | 22.7 µM (inactive) | 21.1 µM (inactive) | > 100 µM (inactive) | 29.3 µM (inactive) | 22.5 µM (inactive)
3 | O=c1[nH][nH]c(=S)c(=O)[nH]1 | > 100 µM (inactive) | > 100 µM (inactive) | > 100 µM (inactive) | > 100 µM (inactive) | > 100 µM (inactive) | > 100 µM (inactive) | > 100 µM (inactive) | > 100 µM (inactive) | > 100 µM (inactive) | > 100 µM (inactive) | > 100 µM (inactive) | > 100 µM (inactive) | > 100 µM (inactive) | > 100 µM (inactive) | > 100 µM (inactive) | > 100 µM (inactive) | > 100 µM (inactive) | > 100 µM (inactive) | > 100 µM (inactive) | > 100 µM (inactive)
4 | C/C(=N\NC(=S)NCCCNC(=S)N/N=C(\C)c1ccccn1)c1ccccn1 | 2.62 µM (inactive) | 2 µM (inactive) | 9.27 µM (inactive) | 3.51 µM (inactive) | 2.95 µM (inactive) | 2.02 µM (inactive) | 1.16 µM (inactive) | 3.23 µM (inactive) | 2.42 µM (inactive) | 1.29 µM (inactive) | > 34.8 µM (inactive) | 6.73 µM (inactive) | 22.5 µM (inactive) | 2.22 µM (inactive) | 1.35 µM (inactive) | 2.51 µM (inactive) | 0.617 µM (active) | 5.27 µM (inactive) | 1.4 µM (inactive) | 4.2 µM (inactive)
5 | O=C(OCc1ccccc1)N(CCCCN(CCCNCc1ccccc1)C(=O)OCc1ccccc1)CCCNCc1ccccc1 | 1.57 µM (inactive) | 0.24 µM (active) | 0.288 µM (active) | 1.98 µM (inactive) | 1.43 µM (inactive) | 0.697 µM (active) | 0.242 µM (active) | 0.242 µM (active) | 1.71 µM (inactive) | 0.188 µM (active) | 0.431 µM (active) | 0.12 µM (active) | 0.221 µM (active) | 1.71 µM (inactive) | 0.186 µM (active) | 0.194 µM (active) | 0.289 µM (active) | 12.2 µM (inactive) | 1.51 µM (inactive) | 0.24 µM (active)
6 | CC[C@@]1(O)C(=O)OCc2c1cc1n(c2=O)Cc2c-1nc1ccccc1c2/C=N/NC(=O)c1ccc(N)cc1 | < 0.01 µM (active) | 4.68 µM (inactive) | 0.434 µM (active) | < 0.01 µM (active) | 0.0489 µM (active) | 0.136 µM (active) | < 0.01 µM (active) | 0.197 µM (active) | 0.452 µM (active) | 0.0796 µM (active) | 0.0175 µM (active) | 0.0447 µM (active) | 0.0796 µM (active) | 0.392 µM (active) | 0.0327 µM (active) | 0.0111 µM (active) | 0.0422 µM (active) | 0.123 µM (active) | 0.0244 µM (active) | 1.52 µM (inactive)
7 | CN(C)/C=N/c1cc(=O)n(C)c(=O)n1C | > 100 µM (inactive) | > 100 µM (inactive) | > 100 µM (inactive) | > 100 µM (inactive) | > 100 µM (inactive) | > 100 µM (inactive) | > 100 µM (inactive) | > 100 µM (inactive) | > 100 µM (inactive) | > 100 µM (inactive) | > 100 µM (inactive) | > 100 µM (inactive) | > 100 µM (inactive) | > 100 µM (inactive) | > 100 µM (inactive) | > 100 µM (inactive) | > 100 µM (inactive) | > 100 µM (inactive) | > 100 µM (inactive) | > 100 µM (inactive)
